These results are taken from US11358952B2, “Substituted 4-aminoisoindoline-1,3-dione compounds, compositions thereof, and methods of treatment therewith” (Celgene Corporation, priority 2018, dated 2022).

This assay relates to SU-DHL-4 cell line. The experiment in a line: SU-DHL-4 cell proliferation assay (Cell Titer-Glo viability). Type of assay: cell-based. To be noted: Homo sapiens; cell viability IC50 activity level, DLBCL cell line SU-DHL-4, 120 hours post-treatment; read-out: SU-DHL-4 Act. The essentials:
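SU-DHL-4 cells (500/well, RPMI-1640 + 10% FBS) exposed to 20-point compound dilutions (0.5 nM–10 μM, 0.1% DMSO) for 120 h at 37°C, 5% CO2. Viability measured by Cell Titer-Glo luminescence at t0 and at 120 h. IC50 is the concentration giving 50% of DMSO control, from a four-parameter logistic fit.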
On to `O=C1CCC(N2C(=O)c3cccc(NCc4ccc(CN5CC6(CCC6)C5)cc4)c3C2=O)C(=O)N1` (stereo not drawn) [Cpd 115, 4-(4-(2-azaspiro[3.3]heptan-2-ylmethyl)benzylamino)-2-(2,6-dioxopiperidin-3-yl)isoindoline-1,3-dione], for which the IC50 was less than 200 nM.
The same measure for `O=C1CCC(N2C(=O)c3cccc(NCc4ccc(CN5CC6(C5)CC(F)(F)C6)cc4)c3C2=O)C(=O)N1` (stereo not drawn) [Cpd 116, 4-(4-((6,6-difluoro-2-azaspiro[3.3]heptan-2-yl)methyl)benzylamino)-2-(2,6-dioxopiperidin-3-yl)isoindoline-1,3-dione]: 751 to 1000 nM.
The figure for `O=C1CCC(N2C(=O)c3cccc(NCc4ccc(CN5CC(C(F)(F)F)C5)cc4)c3C2=O)C(=O)N1` (stereo not drawn) [Cpd 117, 2-(2,6-dioxopiperidin-3-yl)-4-(4-((3-(trifluoromethyl)azetidin-1-yl)methyl)benzylamino)isoindoline-1,3-dione] is 200 to 500 nM; for `O=C1CCC(N2C(=O)c3cccc(NCc4ccc(CN5CCN(CC6CC6)CC5)cc4F)c3C2=O)C(=O)N1` (stereo not drawn) [Cpd 118, 4-(4-((4-(cyclopropylmethyl)piperazin-1-yl)methyl)-2-fluorobenzylamino)-2-(2,6-dioxopiperidin-3-yl)isoindoline-1,3-dione] it is less than 200 nM; for `O=C1CCC(N2C(=O)c3cccc(NCc4ccc(CN5CCN(c6ccc(C(F)(F)F)cn6)CC5)cc4)c3C2=O)C(=O)N1` (stereo not drawn) [Cpd 119, 2-(2,6-dioxopiperidin-3-yl)-4-(4-((4-(5-(trifluoromethyl)pyridin-2-yl)piperazin-1-yl)methyl)benzylamino)isoindoline-1,3-dione] it is 200 to 500 nM.
With `N#Cc1cccc(C2CN(Cc3ccc(CNc4cccc5c4C(=O)N(C4CCC(=O)NC4=O)C5=O)cc3F)C2)c1` (stereo not drawn) [Cpd 120, 3-(1-(4-((2-(2,6-dioxopiperidin-3-yl)-1,3-dioxoisoindolin-4-ylamino)methyl)-2-fluorobenzyl)azetidin-3-yl)benzonitrile], the IC50 was less than 200 nM.
The figure for `N#Cc1cccc(C2CN(Cc3ccc(CNc4cccc5c4C(=O)N(C4CCC(=O)NC4=O)C5=O)c(F)c3)C2)c1` (stereo not drawn) [Cpd 121, 3-(1-(4-((2-(2,6-dioxopiperidin-3-yl)-1,3-dioxoisoindolin-4-ylamino)methyl)-3-fluorobenzyl)azetidin-3-yl)benzonitrile] is less than 200 nM.
The figure for `CN1CCC2(CCN(Cc3ccc(CNc4cccc5c4C(=O)N(C4CCC(=O)NC4=O)C5=O)cc3)CC2)C1=O` (stereo not drawn) [Cpd 122, 2-(2,6-dioxopiperidin-3-yl)-4-(4-((2-methyl-1-oxo-2,8-diazaspiro[4.5]decan-8-yl)methyl)benzylamino)isoindoline-1,3-dione] is 200 to 500 nM; for `O=C1CCC(N2C(=O)c3cccc(NCc4ccc(CN5CCC(OC(F)(F)F)CC5)cc4)c3C2=O)C(=O)N1` (stereo not drawn) [Cpd 123, 2-(2,6-dioxopiperidin-3-yl)-4-(4-((4-(trifluoromethoxy)piperidin-1-yl)methyl)benzylamino)isoindoline-1,3-dione] it is 200 to 500 nM; for `CCCOC1CCN(Cc2ccc(CNc3cccc4c3C(=O)N(C3CCC(=O)NC3=O)C4=O)cc2)CC1` (stereo not drawn) [Cpd 124, 2-(2,6-dioxopiperidin-3-yl)-4-(4-((4-propoxypiperidin-1-yl)methyl)benzylamino)isoindoline-1,3-dione] it is 501 to 750 nM.
The figure for `CC(C)COC1CCN(Cc2ccc(CNc3cccc4c3C(=O)N(C3CCC(=O)NC3=O)C4=O)cc2)CC1` (stereo not drawn) [Cpd 125, 2-(2,6-dioxopiperidin-3-yl)-4-(4-((4-isobutoxypiperidin-1-yl)methyl)benzylamino)isoindoilne-1,3-dione] is 200 to 500 nM; for `O=C1CCC(N2C(=O)c3cccc(NCc4ccc(CN5CCC(OC6CCC6)CC5)cc4)c3C2=O)C(=O)N1` (stereo not drawn) [Cpd 126] it is 200 to 500 nM.
In the case of `O=C1CCC(N2C(=O)c3cccc(NCc4ccc(CN5CCC(OCC6CC6)CC5)cc4)c3C2=O)C(=O)N1` (stereo not drawn) [Cpd 127, 4-(4-((4-(cyclopropylmethoxy)piperidin-1-yl)methyl)benzylamino)-2-(2,6-dioxopiperidin-3-yl)isoindoline-1,3-dione], the IC50 fell in the range of 751 to 1000 nM.
For the compound `CCC1(OC)CCN(Cc2ccc(CNc3cccc4c3C(=O)N(C3CCC(=O)NC3=O)C4=O)cc2)CC1` (stereo not drawn) [Cpd 128, 2-(2,6-dioxopiperidin-3-yl)-4-(4-((4-ethyl-4-methoxypiperidin-1-yl)methyl)benzylamino)isoindoline-1,3-dione], the IC50 lay within 200 to 500 nM.
The same measure for `CC1(C)CCC2(CCN(Cc3ccc(CNc4cccc5c4C(=O)N(C4CCC(=O)NC4=O)C5=O)cc3)CC2)O1` (stereo not drawn) [Cpd 129, 4-(4-((2,2-dimethyl-1-oxa-8-azaspiro[4.5]decan-8-yl)methyl)benzylamino)-2-(2,6-dioxopiperidin-3-yl)isoindoline-1,3-dione]: less than 200 nM.
The same measure for `O=C1CCC(N2C(=O)c3cccc(NCc4ccc(CN5CCC(O)(C(F)(F)F)CC5)cc4)c3C2=O)C(=O)N1` (stereo not drawn) [Cpd 130, 2-(2,6-dioxopiperidin-3-yl)-4-(4-((4-hydroxy-4-(trifluoromethyl)piperidin-1-yl)methyl)benzylamino)isoindoline-1,3-dione]: 751 to 1000 nM; for `O=C1CCC(N2C(=O)c3cccc(NCc4ccc(CN5CCC(O)(C6CC6)CC5)cc4)c3C2=O)C(=O)N1` (stereo not drawn) [Cpd 131, 4-(4-((4-cyclopropyl-4-hydroxypiperidin-1-yl)methyl)benzylamino)-2-(2,6-dioxopiperidin-3-yl)isoindoline-1,3-dione]: 200 to 500 nM.
In the case of `O=C1CCC(N2C(=O)c3cccc(NCc4ccc(CN5CCC(Oc6ccccn6)CC5)cc4)c3C2=O)C(=O)N1` (stereo not drawn) [Cpd 132, 2-(2,6-dioxopiperidin-3-yl)-4-(4-((4-(pyridin-2-yloxy)piperidin-1-yl)methyl)benzylamino)isoindoline-1,3-dione], the IC50 was 751 to 1000 nM.
Consider `CCS(=O)(=O)N1CCN(Cc2ccc(CNc3cccc4c3C(=O)N(C3CCC(=O)NC3=O)C4=O)cc2)CC1` (stereo not drawn) [Cpd 133, 2-(2,6-dioxopiperidin-3-yl)-4-(4-((4-(ethylsulfonyl)piperazin-1-yl)methyl)benzylamino)isoindoline-1,3-dione], for which the IC50 is 200 to 500 nM.
The same measure for `CC(C)(C)C1CN(Cc2ccc(CNc3cccc4c3C(=O)N(C3CCC(=O)NC3=O)C4=O)c(F)c2)C1` (stereo not drawn) [Cpd 134, 4-(4-((3-tert-butylazetidin-1-yl)methyl)-2-fluorobenzylamino)-2-(2,6-dioxopiperidin-3-yl)isoindoline-1,3-dione]: less than 200 nM.
The same measure for `O=C1CCC(N2C(=O)c3cccc(NCc4ccc(CN5CC6(CC6)C5)cc4F)c3C2=O)C(=O)N1` (stereo not drawn) [Cpd 135, 4-(4-(5-azaspiro[2.3]hexan-5-ylmethyl)-2-fluorobenzylamino)-2-(2,6-dioxopiperidin-3-yl)isoindoline-1,3-dione]: 200 to 500 nM.
The same measure for `COc1cc(N2CCN(Cc3ccc(CNc4cccc5c4C(=O)N(C4CCC(=O)NC4=O)C5=O)cc3)CC2)ncn1` (stereo not drawn) [Cpd 136, 2-(2,6-dioxopiperidin-3-yl)-4-(4-((4-(6-methoxypyrimidin-4-yl)piperazin-1-yl)methyl)benzylamino)isoindoline-1,3-dione]: 751 to 1000 nM; for `O=C1CCC(N2C(=O)c3cccc(NCc4ccc(CN5CC6(CCC6)C5)cc4F)c3C2=O)C(=O)N1` (stereo not drawn) [Cpd 137, 4-(4-(2-azaspiro[3.3]heptan-2-ylmethyl)-2-fluorobenzylamino)-2-(2,6-dioxopiperidin-3-yl)isoindoline-1,3-dione]: less than 200 nM; for `N#Cc1cccc(N2CCN(Cc3ccc(CNc4cccc5c4C(=O)N(C4CCC(=O)NC4=O)C5=O)cc3)CC2)n1` (stereo not drawn) [Cpd 138, 6-(4-(4-((2-(2,6-dioxopiperidin-3-yl)-1,3-dioxoisoindolin-4-ylamino)methyl)benzyl)piperazin-1-yl)picolinonitrile]: 501 to 750 nM.
`NC(=O)c1ccc(N2CCN(Cc3ccc(CNc4cccc5c4C(=O)N(C4CCC(=O)NC4=O)C5=O)c(F)c3)CC2)cc1` (stereo not drawn) [Cpd 139, 4-(4-(4-((2-(2,6-dioxopiperidin-3-yl)-1,3-dioxoisoindolin-4-ylamino)methyl)-3-fluorobenzyl)piperazin-1-yl)benzamide]: the IC50 was less than 200 nM.
The same measure for `CN(C)C(=O)c1ccc(N2CCN(Cc3ccc(CNc4cccc5c4C(=O)N(C4CCC(=O)NC4=O)C5=O)c(F)c3)CC2)cn1` (stereo not drawn) [Cpd 140, 5-(4-(4-((2-(2,6-dioxopiperidin-3-yl)-1,3-dioxoisoindolin-4-ylamino)methyl)-3-fluorobenzyl)piperazin-1-yl)-N,N-dimethylpicolinamide]: 200 to 500 nM.
The figure for `NC(=O)c1ccc(N2CCN(Cc3ccc(CNc4cccc5c4C(=O)N(C4CCC(=O)NC4=O)C5=O)cc3F)CC2)cc1` (stereo not drawn) [Cpd 141, 4-(4-(4-((2-(2,6-dioxopiperidin-3-yl)-1,3-dioxoisoindolin-4-ylamino)methyl)-2-fluorobenzyl)piperazin-1-yl)benzamide] is less than 200 nM; for `CN(C)C(=O)c1ccc(N2CCN(Cc3ccc(CNc4cccc5c4C(=O)N(C4CCC(=O)NC4=O)C5=O)cc3F)CC2)cn1` (stereo not drawn) [Cpd 142, 5-(4-(4-((2-(2,6-dioxopiperidin-3-yl)-1,3-dioxoisoindolin-4-ylamino)methyl)-2-fluorobenzyl)piperazin-1-yl)-N,N-dimethylpicolinamide] it is 501 to 750 nM.
The same measure for `CC(C)(C)OC1CCN(Cc2ccc(CNc3cccc4c3C(=O)N(C3CCC(=O)NC3=O)C4=O)c(F)c2)CC1` (stereo not drawn) [Cpd 143, 4-(4-((4-tert-butyoxypiperidin-1-yl)methyl)-2-fluorobenzylamino)-2-(2,6-dioxopiperidin-3-yl)isoindoline-1,3-dione]: less than 200 nM.
Regarding `O=C1CCC(N2C(=O)c3cccc(NCc4ccc(CN5CCC6(CCCO6)CC5)cc4F)c3C2=O)C(=O)N1` (stereo not drawn) [Cpd 144, 4-(4-(1-oxa-8-azaspiro[4.5]decan-8-ylmethyl)-2-fluorobenzylamino)-2-(2,6-dioxopiperidin-3-yl)isoindoline-1,3-dione], the IC50 is less than 200 nM.
